From ChEMBL document CHEMBL5500378, “Discovery of 4-benzylpiperazinequinoline BChE inhibitor that suppresses neuroinflammation for the treatment of Alzheimer's disease” (Eur J Med Chem, 2024) come the findings set out here.

Calls of active or inactive are those of the source. The rule behind the calls is not given here. Some results are limits rather than exact numbers.

Usually Kp stands for tissue or fluid exposure divided by exposure in the circulation. For orientation: Tmax means the time at which the peak concentration occurs. The IC50 is the point on the concentration scale where inhibition reaches its midpoint. As usually defined, the inhibition is how much of the control response was suppressed. A high value points to a response far below the control. By half-life is commonly meant the time in which the quantity being followed falls by half. By Cmax is commonly meant the highest concentration seen after dosing. The MRT inf is the average time that molecules of a dose stay in the body. Usually AUC(0-inf) stands for total exposure, with the tail of the curve extrapolated. Read a high AUC(0-inf) as more exposure.

A short description of data set [1]: Ratio of AUC in brain to plasma of ICR mouse at 10 mg/kg, IG measured at 10 to 240 mins by LC-MS/MS analysis. The format is ADME, organism-based. As to conditions: po, time 10-240 min.
Data set [2] in a line: Tmax in Sprague-Dawley rat at 10 mg/kg, IG measured for 2880 mins by LC-MS/MS analysis. It counts as ADME, organism-based. The note with it: in vivo, po.
The nature of data set [3]: Half life in Sprague-Dawley rat at 10 mg/kg, iv measured for 2880 mins by LC-MS/MS analysis. It counts as ADME, organism-based. As to conditions: in vivo, 48 h.
The nature of data set [4]: AUC (0 to t) in plasma of ICR mouse at 10 mg/kg, IG measured at 10 to 240 mins by LC-MS/MS analysis. The format is ADME, organism-based. As to conditions: in vivo, po, time 10-240 min.
Data set [5] has as its system BV-2. The experiment in a line: Anti-inflammatory activity against mouse BV-2 cells assessed as decrease in LPS-induced TNF-alpha level at 5 uM preincubated for 1 hr followed by LPS addition and incubated overnight by immunofluorescence based analysis. It counts as functional, cell-based.
The subject of data set [6] is Mus musculus. The experiment in a line: Improvement of learning ability in ICR mouse model of Amyloid beta(1 to 42)-induced cognitive impairment at 10 mg/kg, IG for 12 days by Moris water maze test. As to conditions: time 12.0 day. The format is functional, organism-based.
Data set [7] addresses Cholinesterase (Homo sapiens, UniProt P06276). Description: Inhibition of human BChE using BTC as substrate incubated for 2 mins by Ellman's method.
In data set [8] the test system is Mus musculus. The experiment in a line: Neuroprotective activity in ICR mouse model of Amyloid beta(1 to 42)-induced cognitive impairment assessed as increase in AChE expression in brain at 10 mg/kg, IG for 12 days by ELISA. The format is functional, organism-based. As to conditions: time 12.0 day.
Data set [9] concerns Mus musculus. The experiment in a line: Anti-inflammatory activity in ICR mouse model assessed as reduction in serum IL-1beta level at 10 mg/kg, IG pretreated for 10 days followed by LPS treatment for 4 days by ELISA. The format is functional, organism-based. The note with it: time 14.0 day. On the technique in general: In an ELISA, binding on a coated surface is turned into a signal by an enzyme label.

Data set [10] has as its target Acetylcholinesterase (Electrophorus electricus) (UniProt O42275). Description: Inhibition of electric eel AChE using ATC as substrate at 10 uM incubated for 2 mins by Ellman's method relative to control. (In Ellman's method for cholinesterases, released thiocholine reacts with DTNB.)
Data set [11] has as its system BV-2. The experiment in a line: Anti-inflammatory activity against mouse BV-2 cells assessed as decrease in LPS-induced IFN-gamma level at 2 to 6 uM preincubated for 1 hr followed by LPS addition and incubated overnight by ELISA. It counts as functional, cell-based. The note with it: dose 2-6 µM.
The nature of data set [12]: Half life in Sprague-Dawley rat at 10 mg/kg, IG measured for 2880 mins by LC-MS/MS analysis. The format is ADME, organism-based. The note with it: in vivo, po.
Data set [13] concerns Mus musculus. The experiment in a line: Anti-inflammatory activity in ICR mouse model assessed as reduction in brain IL-1beta level at 10 mg/kg, IG pretreated for 10 days followed by LPS treatment for 4 days by ELISA. The format is functional, organism-based. The note with it: time 14.0 day.
The nature of data set [14]: Cmax in plasma of ICR mouse at 10 mg/kg, IG measured at 10 to 240 mins by LC-MS/MS analysis. The format is ADME, organism-based. As to conditions: in vivo, po, time 10-240 min.
The nature of data set [15]: Toxicity in ICR mouse assessed as animal death administered orally. The note with it: in vivo, po.
Data set [16] is described as follows: MRT (infinity) in Sprague-Dawley rat at 10 mg/kg, IG measured for 2880 mins by LC-MS/MS analysis. It counts as ADME, organism-based. The note with it: in vivo, po.
The nature of data set [17]: Toxicity in ICR mouse model of Amyloid beta(1 to 42)-induced cognitive impairment assessed as change in body appearance at 10 mg/kg, IG for 12 days. As to conditions: in vivo, po, 288 h, time 12 day. The format is organism-based.
The target in data set [18] is Cholinesterase (Equus caballus, UniProt P81908). Description: Inhibition of equine serum BChE using BTC as substrate incubated for 2 mins by Ellman's method. It counts as cell-free.
Data set [19] can be described thus: Neurotoxicity against rat PC12 cells by MTT assay. As to conditions: pc-12. It counts as toxicity, cell-based. (Formazan colour is commonly taken as a measure of viable cells.)
Data set [20] can be described thus: AUC (0 to infinity) in Sprague-Dawley rat at 10 mg/kg, IG measured for 2880 mins by LC-MS/MS analysis. The format is ADME, organism-based. The note with it: in vivo, po.

Sequence of Cholinesterase (Equus caballus, UniProt P81908) (P81908 whole entry): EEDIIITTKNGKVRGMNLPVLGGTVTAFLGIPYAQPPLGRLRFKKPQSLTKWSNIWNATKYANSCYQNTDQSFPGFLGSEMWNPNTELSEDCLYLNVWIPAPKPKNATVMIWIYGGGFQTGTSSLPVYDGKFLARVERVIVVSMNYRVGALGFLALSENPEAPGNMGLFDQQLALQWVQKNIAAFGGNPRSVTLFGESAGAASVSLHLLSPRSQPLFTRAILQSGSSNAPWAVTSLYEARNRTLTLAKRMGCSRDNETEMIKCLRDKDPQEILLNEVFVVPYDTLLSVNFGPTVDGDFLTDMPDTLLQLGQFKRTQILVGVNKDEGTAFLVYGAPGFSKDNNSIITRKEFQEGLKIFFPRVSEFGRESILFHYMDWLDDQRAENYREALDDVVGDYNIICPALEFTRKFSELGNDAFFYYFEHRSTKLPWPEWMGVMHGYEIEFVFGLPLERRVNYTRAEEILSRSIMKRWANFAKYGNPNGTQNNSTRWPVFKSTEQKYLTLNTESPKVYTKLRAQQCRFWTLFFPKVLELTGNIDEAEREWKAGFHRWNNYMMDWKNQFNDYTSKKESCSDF
Sequence of Acetylcholinesterase (Electrophorus electricus) (O42275 24-633 limits assumed): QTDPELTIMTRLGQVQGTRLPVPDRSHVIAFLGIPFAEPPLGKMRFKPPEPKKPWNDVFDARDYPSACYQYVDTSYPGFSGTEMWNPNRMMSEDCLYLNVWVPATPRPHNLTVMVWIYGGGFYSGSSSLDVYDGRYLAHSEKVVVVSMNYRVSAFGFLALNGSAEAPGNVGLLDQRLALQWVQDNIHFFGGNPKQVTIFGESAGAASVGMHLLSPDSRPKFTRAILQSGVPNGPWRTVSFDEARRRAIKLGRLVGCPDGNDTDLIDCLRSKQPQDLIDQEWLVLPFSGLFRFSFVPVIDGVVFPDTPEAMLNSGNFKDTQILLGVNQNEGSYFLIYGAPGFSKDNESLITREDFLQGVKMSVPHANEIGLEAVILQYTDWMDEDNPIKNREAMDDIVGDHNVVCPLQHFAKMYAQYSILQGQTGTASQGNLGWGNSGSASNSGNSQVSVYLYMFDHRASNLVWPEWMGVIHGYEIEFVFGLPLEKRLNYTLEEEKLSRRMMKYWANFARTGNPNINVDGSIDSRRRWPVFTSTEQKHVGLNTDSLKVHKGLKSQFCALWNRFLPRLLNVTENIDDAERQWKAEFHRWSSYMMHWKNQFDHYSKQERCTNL
Sequence of Cholinesterase (Homo sapiens, UniProt P06276) (P06276 whole entry): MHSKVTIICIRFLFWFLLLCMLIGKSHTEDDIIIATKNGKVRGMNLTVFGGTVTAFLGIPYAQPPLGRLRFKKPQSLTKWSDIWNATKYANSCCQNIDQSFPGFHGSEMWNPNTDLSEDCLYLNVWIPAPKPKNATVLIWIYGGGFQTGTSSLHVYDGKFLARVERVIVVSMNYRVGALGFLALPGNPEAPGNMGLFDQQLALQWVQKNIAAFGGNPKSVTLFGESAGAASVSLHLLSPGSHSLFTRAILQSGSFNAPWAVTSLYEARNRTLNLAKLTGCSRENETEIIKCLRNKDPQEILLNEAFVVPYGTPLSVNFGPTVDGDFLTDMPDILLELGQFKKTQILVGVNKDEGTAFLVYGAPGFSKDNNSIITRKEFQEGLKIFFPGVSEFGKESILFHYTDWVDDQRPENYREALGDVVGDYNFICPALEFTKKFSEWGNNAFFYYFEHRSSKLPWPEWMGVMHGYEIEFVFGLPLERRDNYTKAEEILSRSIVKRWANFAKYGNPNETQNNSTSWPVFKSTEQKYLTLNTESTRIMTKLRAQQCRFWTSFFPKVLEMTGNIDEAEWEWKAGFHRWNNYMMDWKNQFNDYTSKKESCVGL

For `CCCc1ccc(C(=O)Nc2cnc3ccccc3c2N2CCN(Cc3ccccc3)CC2)cc1`, the partition ratio (Kp) in data set [1] worked out at 1.96. For the same molecule, in data set [2], the time of peak concentration (Tmax) is 1 h. For the same molecule, the t1/2 in [3] stood at 5.047 h. The same molecule displayed an AUCt in data set [4] of 20051.76 ng·h/mL. Moreover, the result in the data set on BV-2 [5], in the data set on Mus musculus [6], in the data set with Mus musculus [8], with Mus musculus [9], with BV-2 [11] and with Mus musculus [13] was Active. The results for the IC50 at Cholinesterase [7] and against Cholinesterase [18] were 0.16 µM and 0.06 µM, respectively. In addition, the inhibition in [10] is under 50%. Moreover, the half-life in data set [12] worked out at 2.81 h. Further, the Cmax in data set [14] was 238.2 ng/mL. Further, the Activity result is on record as “Non-Toxic” in [15], “Non-Toxic” in [17] and “Not Active” in data set [19]. For the same molecule, the MRT inf in [16] is 17.8 h. Further, the total exposure AUC(0-inf) in data set [20] was 5650 ng·h/mL.
